Test results as given in patent US12570648B2, “6,7-dihydro-5H-pyrido[2,3-c]pyridazine derivatives and related compounds as Bcl-xL protein inhibitors and pro-apoptotic agents for treating cancer” (LES LABORATOIRES SERVIER, priority 2019, dated 2026).

Experiments:
MOLT-4 cells = assay: MOLT-4 cell viability using MTT assay; type: cell-based; settings: Homo sapiens, MOLT-4, 48 h, 48 h exposure
Procedure: MTT colorimetric assay is based on the mitochondrial reduction of tetrazolium salt by living cells.
Cells were cultured at 37° C. in a humidified atmosphere containing 5% CO2. […] At the end of incubation time, 15 μL of MTT solution (5 mg/ml) were added per well and the cells were incubated for another 4 h. […] IC50s were calculated using standard four-parametric curve fitting.

[1] = target: His-His-(EK)-hsBCLXL(2-197)[N197C] (Homo sapiens (Human), UniProt Q07817, N197C); assay: Fluorescence quenching assay; type: binding; settings: 1 nM Cy5-labelled protein, 400 nM PUMA peptide, 2 hours at 23° C.; KI determined from IC50
In short: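 Ki values converted from IC50s, measured as fluorescence increase (Ex 620/Em 680 nm) after 2 h at 23° C. Compounds were titrated over 11 points against 1 nM Cy5-BCL-xL and 400 nM quencher-tagged PUMA peptide in pH 7.4 HEPES (10 mM), 150 mM NaCl, 0.05% Tween 20, 5% DMSO.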

Chain of His-His-(EK)-hsBCLXL(2-197)[N197C] (Q07817 2-197 N197C): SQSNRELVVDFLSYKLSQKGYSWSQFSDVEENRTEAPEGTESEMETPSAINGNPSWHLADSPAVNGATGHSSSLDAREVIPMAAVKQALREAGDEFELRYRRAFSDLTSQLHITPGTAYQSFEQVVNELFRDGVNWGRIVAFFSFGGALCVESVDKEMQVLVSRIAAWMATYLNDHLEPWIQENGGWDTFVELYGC

`Cc1c(Nc2nc3ccccc3s2)nnc2c1CCCN2c1ccc(-c2cnn(CC34CC5(C)CC(C)(C3)CC(OCCN(CCO)CCO)(C5)C4)c2C)c(C(=O)O)n1` [Example 134, 6-[3-(1,3-benzothiazol-2-ylamino)-4-methyl-6,7-dihydro-5H-pyrido[2,3-c]pyridazin-8-yl]-3-[1-[[3-[2-[bis(2-hydroxyethyl)amino]ethoxy]-5,7-dimethyl-1-adamantyl]methyl]-5-methyl-pyrazol-4-yl]pyridine-2-carboxylic acid] gave an IC50 (MOLT-4 cells) of 1.57 nM and a Ki [1] of 0.0028 nM.
`Cc1c(Nc2nc3ccccc3s2)nnc2c1CCCN2c1ccc(-c2cnn(CC34CC5(C)CC(C)(C3)CC(OCCNC(CO)CO)(C5)C4)c2C)c(C(=O)O)n1` [Example 135, 6-[3-(1,3-benzothiazol-2-ylamino)-4-methyl-6,7-dihydro-5H-pyrido[2,3-c]pyridazin-8-yl]-3-[1-[[3-[2-[[2-hydroxy-1-(hydroxymethyl)ethyl]amino]ethoxy]-5,7-dimethyl-1-adamantyl]methyl]-5-methyl-pyrazol-4-yl]pyridine-2-carboxylic acid] was tested, and the IC50 (MOLT-4 cells) was 3.05 nM and the Ki [1] was 0.0018 nM.
For `Cc1c(Nc2nc3ccccc3s2)nnc2c1CCCN2c1ccc(-c2cnn(CC34CC5(C)CC(C)(C3)CC(OCCNCCOCCO)(C5)C4)c2C)c(C(=O)O)n1` [Example 136, 6-[3-(1,3-benzothiazol-2-ylamino)-4-methyl-6,7-dihydro-5H-pyrido[2,3-c]pyridazin-8-yl]-3-[1-[[3-[2-[2-(2-hydroxyethoxy)ethylamino]ethoxy]-5,7-dimethyl-1-adamantyl]methyl]-5-methyl-pyrazol-4-yl]pyridine-2-carboxylic acid], the IC50 (MOLT-4 cells) was 1.25 nM and the Ki [1] was 0.0014 nM.
For `CC(=O)N(C)CC#Cc1ccc(OCCCc2sc(N3CCCc4c3nnc(Nc3nc5ccccc5s3)c4C)nc2C(=O)O)c(F)c1` [Example 139, 5-[3-[4-[3-[acetyl(methyl)amino]prop-1-ynyl]-2-fluoro-phenoxy]propyl]-2-[3-(1,3-benzothiazol-2-ylamino)-4-methyl-6,7-dihydro-5H-pyrido[2,3-c]pyridazin-8-yl]thiazole-4-carboxylic acid], the IC50 (MOLT-4 cells) was 0.995 nM and the Ki [1] was 0.02 nM.
`Cc1c(Nc2nc3ccccc3s2)nnc2c1CCCN2c1ccc(-c2cnn(CC34CC5(C)CC(C)(C3)CC(OCCN(CCCCO)CCCCO)(C5)C4)c2C)c(C(=O)O)n1` [Example 140, 6-[3-(1,3-benzothiazol-2-ylamino)-4-methyl-6,7-dihydro-5H-pyrido[2,3-c]pyridazin-8-yl]-3-[1-[[3-[2-[bis(4-hydroxybutyl)amino]ethoxy]-5,7-dimethyl-1-adamantyl]methyl]-5-methyl-pyrazol-4-yl]pyridine-2-carboxylic acid] gave an IC50 (MOLT-4 cells) of 2.85 nM and a Ki [1] of 0.0032 nM.
For `Cc1c(Nc2nc3ccccc3s2)nnc2c1CCCN2c1nc(C(=O)O)c(CCCOc2ccc(C#CCN(C)C)cc2)s1` [Example 141, 2-[3-(1,3-benzothiazol-2-ylamino)-4-methyl-6,7-dihydro-5H-pyrido[2,3-c]pyridazin-8-yl]-5-[3-[4-[3-(dimethylamino)prop-1-ynyl]phenoxy]propyl]thiazole-4-carboxylic acid], the IC50 (MOLT-4 cells) was 0.098 nM and the Ki [1] was 0.0085 nM.
`Cc1c(Nc2nc3ccccc3s2)nnc2c1CCCN2c1ccc(-c2cnn(CC34CC5(C)CC(C)(C3)CC(OCCN3CCOCC3)(C5)C4)c2C)c(C(=O)O)n1` [Example 142, 6-[3-(1,3-benzothiazol-2-ylamino)-4-methyl-6,7-dihydro-5H-pyrido[2,3-c]pyridazin-8-yl]-3-[1-[[3,5-dimethyl-7-(2-morpholinoethoxy)-1-adamantyl]methyl]-5-methyl-pyrazol-4-yl]pyridine-2-carboxylic acid] gave an IC50 (MOLT-4 cells) of 0.0513 nM and a Ki [1] of 0.0026 nM.
In the case of `Cc1c(Nc2nc3ccccc3s2)nnc2c1CCCN2c1ccc(-c2cnn(CC34CC5(C)CC(C)(C3)CC(OCCN3CCCCC3)(C5)C4)c2C)c(C(=O)O)n1` [Example 143, 6-[3-(1,3-benzothiazol-2-ylamino)-4-methyl-6,7-dihydro-5H-pyrido[2,3-c]pyridazin-8-yl]-3-[1-[[3,5-dimethyl-7-[2-(1-piperidyl)ethoxy]-1-adamantyl]methyl]-5-methyl-pyrazol-4-yl]pyridine-2-carboxylic acid], the IC50 (MOLT-4 cells) is reported as 0.0546 nM and the Ki [1] is reported as 0.0014 nM.
In the case of `Cc1c(Nc2nc3ccccc3s2)nnc2c1CCCN2c1ccc(-c2cnn(CC34CC5(C)CC(C)(C3)CC(OCCN3CCNCC3)(C5)C4)c2C)c(C(=O)O)n1` [Example 144, 6-[3-(1,3-benzothiazol-2-ylamino)-4-methyl-6,7-dihydro-5H-pyrido[2,3-c]pyridazin-8-yl]-3-[1-[[3,5-dimethyl-7-(2-piperazin-1-ylethoxy)-1-adamantyl]methyl]-5-methyl-pyrazol-4-yl]pyridine-2-carboxylic acid], the IC50 (MOLT-4 cells) is reported as 13.2 nM and the Ki [1] is reported as 0.0014 nM.
In the case of `Cc1c(Nc2nc3ccccc3s2)nnc2c1CCCN2c1ccc(-c2cnn(CC34CC5(C)CC(C)(C3)CC(OCCN3CCCCCC3)(C5)C4)c2C)c(C(=O)O)n1` [Example 145, 3-[1-[[3-[2-(azepan-1-yl)ethoxy]-5,7-dimethyl-1-adamantyl]methyl]-5-methyl-pyrazol-4-yl]-6-[3-(1,3-benzothiazol-2-ylamino)-4-methyl-6,7-dihydro-5H-pyrido[2,3-c]pyridazin-8-yl]pyridine-2-carboxylic acid], the IC50 (MOLT-4 cells) is reported as 0.265 nM and the Ki [1] is reported as 0.0018 nM.
`Cc1c(Nc2nc3ccccc3s2)nnc2c1CCCN2c1ccc(-c2cnn(CC34CC5(C)CC(C)(C3)CC(OCCN3CCN(C(C)C)CC3)(C5)C4)c2C)c(C(=O)O)n1` [Example 146, 6-[3-(1,3-benzothiazol-2-ylamino)-4-methyl-6,7-dihydro-5H-pyrido[2,3-c]pyridazin-8-yl]-3-[1-[[3-[2-(4-isopropylpiperazin-1-yl)ethoxy]-5,7-dimethyl-1-adamantyl]methyl]-5-methyl-pyrazol-4-yl]pyridine-2-carboxylic acid] showed an IC50 (MOLT-4 cells) of 0.247 nM and a Ki [1] of 0.0032 nM.
`Cc1c(Nc2nc3ccccc3s2)nnc2c1CCCN2c1nc(C(=O)O)c(CCCOc2ccc(C#CCNCCCO)cc2F)s1` [Example 147, 2-[3-(1,3-benzothiazol-2-ylamino)-4-methyl-6,7-dihydro-5H-pyrido[2,3-c]pyridazin-8-yl]-5-[3-[2-fluoro-4-[3-(3-hydroxypropylamino)prop-1-ynyl]phenoxy]propyl]thiazole-4-carboxylic acid] showed an IC50 (MOLT-4 cells) of 0.852 nM and a Ki [1] of 0.0046 nM.
Work on `Cc1c(Nc2nc3ccccc3s2)nnc2c1CCCN2c1nc(C(=O)O)c(CCCOc2ccc(C#CCN(C)CC[C@H](O)CO)cc2F)s1` [Example 148, 2-[3-(1,3-benzothiazol-2-ylamino)-4-methyl-6,7-dihydro-5H-pyrido[2,3-c]pyridazin-8-yl]-5-[3-[4-[3-[[(3S)-3,4-dihydroxybutyl]-methyl-amino]prop-1-ynyl]-2-fluoro-phenoxy]propyl]thiazole-4-carboxylic acid] yielded an IC50 (MOLT-4 cells) of 0.277 nM and a Ki [1] of 0.0059 nM.
`Cc1c(Nc2nc3ccccc3s2)nnc2c1CCCN2c1ccc(-c2cnn(CC34CC5(C)CC(C)(C3)CC(OCCNCc3ccc(O)cc3)(C5)C4)c2C)c(C(=O)O)n1` [Example 149, 6-[3-(1,3-benzothiazol-2-ylamino)-4-methyl-6,7-dihydro-5H-pyrido[2,3-c]pyridazin-8-yl]-3-[1-[[3-[2-[(4-hydroxyphenyl)methylamino]ethoxy]-5,7-dimethyl-1-adamantyl]methyl]-5-methyl-pyrazol-4-yl]pyridine-2-carboxylic acid] gave an IC50 (MOLT-4 cells) of 0.982 nM and a Ki [1] of 0.0037 nM.
Compound `Cc1c(Nc2nc3ccccc3s2)nnc2c1CCCN2c1ccc(-c2cnn(CC34CC5(C)CC(C)(C3)CC(OCCN(C)CCO)(C5)C4)c2C)c(C(=O)O)n1` [Example 150, 6-[3-(1,3-benzothiazol-2-ylamino)-4-methyl-6,7-dihydro-5H-pyrido[2,3-c]pyridazin-8-yl]-3-[1-[[3-[2-[2-hydroxyethyl(methyl)amino]ethoxy]-5,7-dimethyl-1-adamantyl]methyl]-5-methyl-pyrazol-4-yl]pyridine-2-carboxylic acid] has an IC50 (MOLT-4 cells) of 0.219 nM and a Ki [1] of 0.0015 nM.
Compound `COCCCN(C)CCOC12CC3(C)CC(C)(CC(Cn4ncc(-c5ccc(N6CCCc7c6nnc(Nc6nc8ccccc8s6)c7C)nc5C(=O)O)c4C)(C3)C1)C2` [Example 151, 6-[3-(1,3-benzothiazol-2-ylamino)-4-methyl-6,7-dihydro-5H-pyrido[2,3-c]pyridazin-8-yl]-3-[1-[[3-[2-[3-methoxypropyl(methyl)amino]ethoxy]-5,7-dimethyl-1-adamantyl]methyl]-5-methyl-pyrazol-4-yl]pyridine-2-carboxylic acid] has an IC50 (MOLT-4 cells) of 0.0824 nM and a Ki [1] of 0.0015 nM.
`Cc1c(Nc2nc3ccccc3s2)nnc2c1CCCN2c1ccc(-c2cnn(CC34CC5(C)CC(C)(C3)CC(OCCN(C)CCCCO)(C5)C4)c2C)c(C(=O)O)n1` [Example 153, 6-[3-(1,3-benzothiazol-2-ylamino)-4-methyl-6,7-dihydro-5H-pyrido[2,3-c]pyridazin-8-yl]-3-[1-[[3-[2-[4-hydroxybutyl(methyl)amino]ethoxy]-5,7-dimethyl-1-adamantyl]methyl]-5-methyl-pyrazol-4-yl]pyridine-2-carboxylic acid] was tested, and the IC50 (MOLT-4 cells) was 0.229 nM and the Ki [1] was 0.0012 nM.
Work on `Cc1c(Nc2nc3ccccc3s2)nnc2c1CCCN2c1ccc(-c2cnn(CC34CC5(C)CC(C)(CC(CCCN6CCCC6)(C5)C3)C4)c2C)c(C(=O)O)n1` [Example 166, 6-[3-(1,3-benzothiazol-2-ylamino)-4-methyl-6,7-dihydro-5H-pyrido[2,3-c]pyridazin-8-yl]-3-[1-[[3,5-dimethyl-7-(3-pyrrolidin-1-ylpropyl)-1-adamantyl]methyl]-5-methyl-pyrazol-4-yl]pyridine-2-carboxylic acid] yielded an IC50 (MOLT-4 cells) of 0.429 nM and a Ki [1] of 0.0027 nM.
